{
  "source": "patent US6589787B2",
  "about": "“T-type calcium channel variants; compositions thereof; and uses” (Syntex (U.S.A.) LLC, priority 1998, dated 2003)",
  "origin": "cited, not measured here",
  "system": "T-type Ca^2+ current",
  "conditions": "freshly dissected neurons from dorsal root ganglia (DRG neurons) of adult rats",
  "data": [
    {"smiles": "CCC1(C)CC(=O)NC1=O", "note": "(stereo not shown) [ethosuximide]", "values": [
      {"measurement": "block of T-type Ca^2+ current", "result": "fully block"}
    ]}
  ]
}
